pIC50: −log10 of the molar value. Calls of active or inactive are those of the source. The rule behind the calls is not given here.
Key:
HCT-116 [1] = test: Cell cycle arrest in human HCT116 cells assessed as accumulation at G2/M phase by Hoechst staining based fluorescence assay; type: functional
Huh-7 [2] = test: Cytotoxicity against human HuH7 cells assessed as cell viability after 48 hrs by Hoechst 33342 staining based assay; type: functional; details: Huh-7, 48 h
RL = test: Cytotoxicity against human RL assessed as cell viability after 48 hrs by Hoechst 33342 staining based assay; type: functional
Caco-2 [3] = test: Cell cycle arrest in human Caco2 cells assessed as mitotic index at 10 uM measured after 48 hrs by Hoechst staining based fluorescence assay (reference value: 3.6); type: functional
PC-3 [4] = test: Cell cycle arrest in human PC3 cells harboring p53 mutant assessed as mitotic index at 25 uM measured after 48 hrs by Hoechst staining based fluorescence assay (reference value: 2.5); type: functional
MDA-MB-231 [5] = test: Cell cycle arrest in human MDA-MB-231 cells harboring p53 mutant assessed as accumulation at S phase at 10 uM measured after 48 hrs by Hoechst/BrdU staining based fluorescence assay (reference value: 42.2%); type: functional
HaCaT [6] = test: Cell cycle arrest in human HaCaT cells harboring […] p53 assessed as mitotic index at 10 uM measured after 48 hrs by Hoechst staining based fluorescence assay (reference value: 2.6); type: functional
MCF7 = test: Cytotoxicity against human MCF7 assessed as cell viability after 48 hrs by Hoechst 33342 staining based assay; type: functional; details: MCF7, 48 h
Caco-2 [7] = test: Cell cycle arrest in human Caco2 cells assessed as mitotic index at 25 uM measured after 48 hrs by Hoechst staining based fluorescence assay (reference value: 3.6); type: functional
MDA-MB-231 [8] = test: Cell cycle arrest in human MDA-MB-231 cells harboring p53 mutant assessed as mitotic index at 25 uM measured after 48 hrs by Hoechst staining based fluorescence assay (reference value: 2.1); type: functional
[9] = Selectivity index, ratio of IC50 for human fibroblasts to IC50 for human HCT116 cells
HCT-116 [10] = test: Cell cycle arrest in human HCT116 cells harboring wild-type p53 assessed as mitotic index at 10 uM measured after 48 hrs by Hoechst staining based fluorescence assay (reference value: 2.3); type: functional
HaCaT [11] = test: Cell cycle arrest in human HaCaT cells harboring […] p53 assessed as accumulation at S phase at 25 uM measured after 48 hrs by Hoechst/BrdU staining based fluorescence assay (reference value: 52.3%); type: functional
[12] = Selectivity index, ratio of IC50 for human fibroblasts to IC50 for human Caco2 cells
MDA-MB-231 [13] = test: Cell cycle arrest in human MDA-MB-231 cells harboring p53 mutant assessed as mitotic index at 10 uM measured after 48 hrs by Hoechst staining based fluorescence assay (reference value: 2.1); type: functional
PC-3 [14] = test: Cytotoxicity against human PC3 cells assessed as cell viability after 48 hrs by Hoechst 33342 staining based assay; type: functional; details: PC-3, 48 h
PC-3 [15] = test: Cell cycle arrest in human PC3 cells assessed as accumulation at G1/S phase by Hoechst staining based fluorescence assay; type: functional
HCT-116 [16] = test: Cell cycle arrest in human HCT116 cells harboring wild-type p53 assessed as accumulation at S phase at 25 uM measured after 48 hrs by Hoechst/BrdU staining based fluorescence assay (reference value: 68.4%); type: functional
NCI-H727 [17] = test: Cell cycle arrest in human NCI-H727 cells harboring p53 mutant assessed as accumulation at S phase at 25 uM measured after 48 hrs by Hoechst/BrdU staining based fluorescence assay (reference value: 40.3%); type: functional
MDA-MB-231 [18] = test: Cell cycle arrest in human MDA-MB-231 cells harboring p53 mutant assessed as accumulation at S phase at 25 uM measured after 48 hrs by Hoechst/BrdU staining based fluorescence assay (reference value: 42.2%); type: functional
Caco-2 [19] = test: Cytotoxicity against human Caco2 cells assessed as cell viability after 48 hrs by Hoechst 33342 staining based assay; type: functional; details: Caco-2, 48 h
[20] = Selectivity index, ratio of IC50 for human fibroblasts to IC50 for human MCF7 cells
MDA-MB-231 [21] = test: Cytotoxicity against human MDA-MB-231 cells assessed as cell viability after 48 hrs by Hoechst 33342 staining based assay; type: functional; details: MDA-MB-231, 48 h
HaCaT [22] = test: Cell cycle arrest in human HaCaT cells harboring […] p53 assessed as mitotic index at 25 uM measured after 48 hrs by Hoechst staining based fluorescence assay (reference value: 2.6); type: functional
NCI-H727 [23] = test: Cell cycle arrest in human NCI-H727 cells harboring p53 mutant assessed as mitotic index at 10 uM measured after 48 hrs by Hoechst staining based fluorescence assay (reference value: 1.1); type: functional
Caco-2 [24] = test: Cell cycle arrest in human Caco2 cells assessed as accumulation at S phase at 25 uM measured after 48 hrs by Hoechst/BrdU staining based fluorescence assay (reference value: […]); type: functional
Fibroblast = test: Cytotoxicity against human fibroblasts assessed as cell viability after 48 hrs by Hoechst 33342 staining based assay
HCT-116 [25] = test: Cell cycle arrest in human HCT116 cells harboring wild-type p53 assessed as accumulation at S phase at 10 uM measured after 48 hrs by Hoechst/BrdU staining based fluorescence assay (reference value: 68.4%); type: functional
NCI-H727 [26] = test: Cell cycle arrest in human NCI-H727 cells harboring p53 mutant assessed as accumulation at S phase at 10 uM measured after 48 hrs by Hoechst/BrdU staining based fluorescence assay (reference value: 40.3%); type: functional
Huh-7 [27] = test: Cell cycle arrest in human HuH7 cells assessed as accumulation at S phase at 25 uM measured after 48 hrs by Hoechst/BrdU staining based fluorescence assay (reference value: 44%); type: functional
NCI-H727 [28] = test: Cytotoxicity against human NCI-H727 cells assessed as cell viability after 48 hrs by Hoechst 33342 staining based assay; type: functional; details: NCI-H727, 48 h
PC-3 [29] = test: Cell cycle arrest in human PC3 cells harboring p53 mutant assessed as accumulation at S phase at 25 uM measured after 48 hrs by Hoechst/BrdU staining based fluorescence assay (reference value: 40.8%); type: functional
HaCaT [30] = test: Cytotoxicity against human HaCaT cells assessed as cell viability after 48 hrs by Hoechst 33342 staining based assay; type: functional
Caco-2 [31] = test: Cell cycle arrest in human Caco2 cells assessed as accumulation at S phase at 10 uM measured after 48 hrs by Hoechst/BrdU staining based fluorescence assay (reference value: […]); type: functional
[32] = Selectivity index, ratio of IC50 for human fibroblasts to IC50 for human RL cells
PC-3 [33] = test: Cell cycle arrest in human PC3 cells harboring p53 mutant assessed as mitotic index at 10 uM measured after 48 hrs by Hoechst staining based fluorescence assay (reference value: 2.5); type: functional
[34] = Selectivity index, ratio of IC50 for human fibroblasts to IC50 for human PC3 cells
HCT-116 [35] = test: Cell cycle arrest in human HCT116 cells harboring wild-type p53 assessed as mitotic index at 25 uM measured after 48 hrs by Hoechst staining based fluorescence assay (reference value: 2.3); type: functional
Huh-7 [36] = test: Cell cycle arrest in human HuH7 cells assessed as mitotic index at 10 uM measured after 48 hrs by Hoechst staining based fluorescence assay (reference value: 2.2); type: functional
Huh-7 [37] = test: Cell cycle arrest in human HuH7 cells assessed as mitotic index at 25 uM measured after 48 hrs by Hoechst staining based fluorescence assay (reference value: 2.2); type: functional
HaCaT [38] = test: Cell cycle arrest in human HaCaT cells assessed as accumulation at G1/S phase by Hoechst staining based fluorescence assay; type: functional
[39] = Selectivity index, ratio of IC50 for human fibroblasts to IC50 for human HaCaT cells
NCI-H727 [40] = test: Cell cycle arrest in human NCI-H727 cells harboring p53 mutant assessed as mitotic index at 25 uM measured after 48 hrs by Hoechst staining based fluorescence assay (reference value: 1.1); type: functional
PC-3 [41] = test: Cell cycle arrest in human PC3 cells harboring p53 mutant assessed as accumulation at S phase at 10 uM measured after 48 hrs by Hoechst/BrdU staining based fluorescence assay (reference value: 40.8%); type: functional
Huh-7 [42] = test: Cell cycle arrest in human HuH7 cells assessed as accumulation at S phase at 10 uM measured after 48 hrs by Hoechst/BrdU staining based fluorescence assay (reference value: 44%); type: functional
HaCaT [43] = test: Cell cycle arrest in human HaCaT cells harboring […] p53 assessed as accumulation at S phase at 10 uM measured after 48 hrs by Hoechst/BrdU staining based fluorescence assay (reference value: 52.3%); type: functional
HCT-116 [44] = test: Cytotoxicity against human HCT116 cells assessed as cell viability after 48 hrs by Hoechst 33342 staining based assay; type: functional; details: HCT-116, 48 h
PC-3 [45] = test: Cell cycle arrest in human PC3 cells assessed as accumulation at G2/M phase by Hoechst staining based fluorescence assay; type: functional
MDA-MB-231 [46] = test: Cell cycle arrest in human MDA-MB-231 cells assessed as accumulation at G1/S phase by Hoechst staining based fluorescence assay; type: functional
HCT-116 [47] = test: Cell cycle arrest in human HCT116 cells harboring wild-type p53 assessed as accumulation at M phase at 25 uM measured after 48 hrs by Hoechst staining based fluorescence assay (reference value: 2.3 to […]); type: functional
HCT-116 [48] = test: Cell cycle arrest in human HCT116 cells harboring wild-type p53 assessed as accumulation at S phase at 25 uM measured after 48 hrs by Hoechst/BrdU staining based fluorescence assay (reference value: 68%); type: functional
Huh-7 [49] = test: Cell cycle arrest in human HuH7 cells assessed as accumulation at G1/S phase by Hoechst staining based fluorescence assay; type: functional
HCT-116 [50] = test: Cell cycle arrest in human HCT116 cells harboring wild-type p53 assessed as accumulation at M phase at 50 uM measured after 48 hrs by Hoechst staining based fluorescence assay (reference value: 2.3 to […]); type: functional
HCT-116 [51] = test: Cell cycle arrest in human HCT116 cells assessed as accumulation at G1/S phase by Hoechst staining based fluorescence assay; type: functional
HCT-116 [52] = test: Cell cycle arrest in human HCT116 cells harboring wild-type p53 assessed as accumulation at S phase at 50 uM measured after 48 hrs by Hoechst/BrdU staining based fluorescence assay (reference value: 68%); type: functional

Oc1cccc(-c2nc(N3CCOCC3)c3oc4ncccc4c3n2)c1 [PI-103]
Activity (HCT-116 [1]): Active | pIC50 (Huh-7 [2]): < 4.70 | pIC50 (RL): 5.54 | Activity_index (Caco-2 [3]): 1.4 | Activity_index (PC-3 [4]): 0.1 | Activity (MDA-MB-231 [5]): inactive | Activity_index (HaCaT [6]): 0.9 | pIC50 (MCF7): 4.88 | Activity_index (Caco-2 [7]): 0.9 | Activity (MDA-MB-231 [8]): inactive | Ratio IC50 [9]: >6.4 | Activity_index (HCT-116 [10]): 1.9 | Activity (HaCaT [11]): 12% | Ratio IC50 [12]: >12.5 | Activity (MDA-MB-231 [13]): inactive | pIC50 (PC-3 [14]): 5.12 | Activity (PC-3 [15]): Active | Activity (HCT-116 [16]): 63% | Activity (NCI-H727 [17]): inactive | Activity (MDA-MB-231 [18]): inactive | pIC50 (Caco-2 [19]): 5.70 | Ratio IC50 [20]: >1.9 | pIC50 (MDA-MB-231 [21]): < 4.70 | Activity_index (HaCaT [22]): 0.5 | Activity (NCI-H727 [23]): inactive | Activity (Caco-2 [24]): 20% | pIC50 (Fibroblast): < 4.70 | Activity (HCT-116 [25]): 63% | Activity (NCI-H727 [26]): inactive | Activity (Huh-7 [27]): inactive | pIC50 (NCI-H727 [28]): < 4.70 | Activity (PC-3 [29]): 1.2% | pIC50 (HaCaT [30]): 5.46 | Activity (Caco-2 [31]): 28% | Ratio IC50 [32]: >8.6 | Activity_index (PC-3 [33]): 0.4 | Ratio IC50 [34]: >3.3 | Activity_index (HCT-116 [35]): 1.8 | Activity (Huh-7 [36]): inactive | Activity (Huh-7 [37]): inactive | Activity (HaCaT [38]): Active | Ratio IC50 [39]: >7.1 | Activity (NCI-H727 [40]): inactive | Activity (PC-3 [41]): 6% | Activity (Huh-7 [42]): inactive | Activity (HaCaT [43]): 20% | pIC50 (HCT-116 [44]): 5.41

CC[C@H](CO)Nc1nc(NCc2ccccc2)c2ncn(C(C)C)c2n1 [SELICICLIB]
pIC50 (Huh-7 [2]): 4.81 | pIC50 (RL): 6.05 | Activity (MDA-MB-231 [5]): 27% | pIC50 (MCF7): 4.99 | Activity (PC-3 [45]): Active | Activity (HaCaT [11]): 3% | Activity (MDA-MB-231 [46]): Active | Activity (HCT-116 [47]): 1.2% | pIC50 (PC-3 [14]): 4.78 | Activity (HCT-116 [16]): 17% | Activity (NCI-H727 [17]): inactive | Activity (MDA-MB-231 [18]): 25% | pIC50 (MDA-MB-231 [21]): 4.77 | Activity (NCI-H727 [23]): inactive | pIC50 (Fibroblast): < 4.70 | Activity (HCT-116 [25]): 25% | Activity (NCI-H727 [26]): inactive | Activity (Huh-7 [27]): 9% | pIC50 (NCI-H727 [28]): < 4.70 | Activity (PC-3 [29]): 38% | Activity (HCT-116 [48]): 25% | pIC50 (HaCaT [30]): 4.78 | Activity (Huh-7 [49]): Active | Activity (HCT-116 [50]): 0.6% | Activity (HCT-116 [51]): Active | Activity (HaCaT [38]): Active | Activity (HCT-116 [52]): 17% | Activity (NCI-H727 [40]): inactive | Activity (PC-3 [41]): 17% | Activity (Huh-7 [42]): 16% | Activity (HaCaT [43]): 26%

From ChEMBL document CHEMBL3992552, “Mechanisms of action and structure-activity relationships of cytotoxic flavokawain derivatives” (Bioorg Med Chem, 2017)
